Here are results for nine compounds from BindingDB's records for patent US20250019357 (Tactogen, 2025).

For assay [1], the target named is 5-hydroxytryptamine receptor 1B (Homo sapiens, UniProt P28222). Description: 5-HT1BR cAMP Secondary Messenger Agonist Assay. The text has this: The 5-HT1BR cAMP secondary messenger agonist assay used a panel of CHO-K1 cell lines stably expressing non-tagged GPCRs that endogenously signal through cAMP. Hit Hunter cAMP assays monitored the activation of a GPCR via Gi and Gs secondary messenger signaling in a homogenous, non-imaging assay format using DiscoverX Enzyme Fragment Complementation (EFC) with β-galactosidase as the functional endpoint.

A short description of assay [2]: Human Serotonin Transporter (SERT, SLC6A4) Functional Antagonist Uptake Assay. The procedure: (§1) Benzofuran derivatives were evaluated for inhibiting the human 5-HT transporter (hSERT) as expressed in CHO cells using an antagonist radioligand assay (Tatsumi, M. et al. (1999), Eur. J. Pharmacol., 368: 277-283).
For assay [3], the target named is Sodium-dependent serotonin transporter (Homo sapiens, UniProt P31645). The description is as above. How it is done:
as §1

One may read the pEC50 as the negative decadic logarithm of the EC50, by convention in mol/L. A higher pEC50 goes with a low EC50. The term pIC50 denotes the negative decadic logarithm of the IC50, by convention in mol/L. A higher pIC50 goes with a low IC50. Broadly, the pKi is the negative decadic logarithm of the Ki, by convention in mol/L. A low value points to a high Ki.

Molecules are shown by their SMILES. pEC50, pIC50, pKi: −log10 of the molar value. Bounds are passed on as bounds.

Sequence of 5-hydroxytryptamine receptor 1B (P28222 whole entry, the tested form may be a part): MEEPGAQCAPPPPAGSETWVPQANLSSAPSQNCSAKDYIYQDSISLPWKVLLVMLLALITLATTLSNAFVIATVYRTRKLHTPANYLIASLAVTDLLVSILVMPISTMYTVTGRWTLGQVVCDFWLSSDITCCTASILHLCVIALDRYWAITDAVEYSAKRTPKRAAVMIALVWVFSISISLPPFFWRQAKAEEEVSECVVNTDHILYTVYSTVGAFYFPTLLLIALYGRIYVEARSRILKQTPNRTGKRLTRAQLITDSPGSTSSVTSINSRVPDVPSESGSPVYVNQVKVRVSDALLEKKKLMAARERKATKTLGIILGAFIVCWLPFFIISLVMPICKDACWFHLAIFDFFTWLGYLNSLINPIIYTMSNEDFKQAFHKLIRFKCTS
Sequence of Sodium-dependent serotonin transporter (P31645 whole entry): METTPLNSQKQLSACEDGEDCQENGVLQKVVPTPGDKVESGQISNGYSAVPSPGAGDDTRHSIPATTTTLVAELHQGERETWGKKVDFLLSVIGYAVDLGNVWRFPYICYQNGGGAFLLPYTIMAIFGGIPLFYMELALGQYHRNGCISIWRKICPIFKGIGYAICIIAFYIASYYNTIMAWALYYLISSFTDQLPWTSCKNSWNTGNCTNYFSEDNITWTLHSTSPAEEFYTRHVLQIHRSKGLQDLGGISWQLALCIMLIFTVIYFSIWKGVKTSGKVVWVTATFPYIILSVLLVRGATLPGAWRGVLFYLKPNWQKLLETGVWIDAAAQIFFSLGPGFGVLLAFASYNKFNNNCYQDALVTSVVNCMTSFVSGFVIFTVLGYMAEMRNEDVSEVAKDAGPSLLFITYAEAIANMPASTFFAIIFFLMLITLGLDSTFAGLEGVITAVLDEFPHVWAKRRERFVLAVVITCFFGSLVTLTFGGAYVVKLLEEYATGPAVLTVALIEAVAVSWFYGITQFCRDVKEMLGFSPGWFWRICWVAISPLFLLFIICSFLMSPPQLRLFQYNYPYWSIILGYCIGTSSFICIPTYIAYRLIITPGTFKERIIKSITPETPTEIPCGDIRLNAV

In assay [1], `CCC(NC)C(=O)c1ccc2occc2c1` (single isomer, unassigned; form 1) [US20250019357, Compound (+)-BK-5MBPB] had a negative-log EC50 (pEC50) of less than 4.52.
`CNC(C)C(=O)c1ccc2occc2c1` (single isomer, unassigned; form 1) [US20250019357, Compound (-)-BK-5MAPB] gave a pEC50 in assay [1] of 7.11.
`CC[C@H](Cc1ccc2ccoc2c1)NC` [US20250019357, Compound R-6-MBPB] gave a negative logarithm of the EC50 (pEC50) in assay [2] of 6.76.
Consider `CC[C@@H](Cc1ccc2ccoc2c1)NC` [US20250019357, Compound S-(+)-6-MBPB], for which, in assay [3], the negative logarithm of the IC50 (pIC50) is 5.57 and the pKi is 5.92.
`CC[C@@H](Cc1ccc2ccoc2c1)NC` [US20250019357, Compound S-6-MBPB]: the pEC50 in assay [2] is 7.27.
On to `CNC(C)C(=O)c1ccc2occc2c1` (single isomer, unassigned; form 2) [US20250019357, Compound (+)-BK-5MAPB], for which the pEC50 in assay [1] was 5.51.
In assay [3], `CC[C@H](Cc1ccc2ccoc2c1)NC` [US20250019357, Compound R-(-)-6-MBPB] showed a negative-log IC50 (pIC50) of 5.24 and a pKi of 5.59.
For the compound `CCC(NC)C(=O)c1ccc2occc2c1` (single isomer, unassigned; form 2) [US20250019357, Compound (-)-BK-5MBPB], the pEC50 in assay [1] is 5.18.
Regarding `CNC(C)C(=O)c1ccc2ccoc2c1` (single isomer, unassigned; form 2) [US20250019357, Compound (+)-BK-6MAPB], the pEC50 in assay [1] is less than 5.00.
